Data taken from ChEMBL document CHEMBL4152183, “Anti-inflammatory effects of flavonoids in neurodegenerative disorders” (Eur J Med Chem, 2018).

System: BV-2
Assay: Antiinflammatory activity in mouse BV2 cells assessed as inhibition of LPS-induced nitric oxide production pretreated for 1 hr followed by LPS addition and measured after 24 hrs by Griess assay
Type: functional, cell-based

IC50 [µM] | Compound
10.9 | O=C(/C=C/c1ccc(O)c(O)c1)c1ccc(O)cc1O [BUTEIN]
13.5 | O=c1c(O)c(-c2ccc(O)c(O)c2)oc2cc(O)ccc12 [FISETIN]
